Test results reported in PubChem BioAssay AID1902 (Broad Institute, 2009).
“And” between values parts separate entries of the source, which are not always exact repeats. Equal entries are not always repeated. The source made the active and inactive calls.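 How the source made its calls: active means EC50 no more than a set limit of log units above the highest dose; inactive means the rest.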

Target: S. pyogenes SKKanGAS, kanamycin survival, BacTiterGlo, 6 h
Experiment: SKKanGAS survival reduction under kanamycin, dose response, streptokinase promoter inhibitor project, SKKanGAS strain, luminescence, dose confirmation (AID 1902);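 further: lower survival reflects blocked streptokinase promoter driving kanamycin resistance gene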

| SMILES | EC50 |
| --- | --- |
| NC(=O)c1cc(C(=O)Cc2ccccc2)c[nH]1 | 2.23 µM |
| COC(=O)C(C)NC(=S)N1CCN(c2c(F)cc3c(=O)c(C(=O)O)cn(C4CC4)c3c2OC)CC1C (configuration not stated) | 3.31 µM |
| Cc1ncc(CO)c(/C=N/NC(=S)Nc2ccc(Cl)c(Cl)c2)c1O | 5.9 µM |
| CCC(C)c1ccccc1NS(=O)(=O)c1cnn(CC)c1 (configuration not stated) | > 15 µM (inactive) |
| CC(C)C(=O)NC(c1cccs1)c1cc([N+](=O)[O-])c2cccnc2c1O (configuration not stated) | 1.45 µM |
| CCC(CC)c1nn2c(N)c(/C=C3\C(C)=Nc4ccccc43)c(=O)nc2s1 | 2.57 µM |
| CCc1ccc(Nc2n[n+](-c3ccccc3)c(-c3c(Cl)cccc3Cl)s2)cc1 | 6.22 µM |
| Clc1cc(CSc2ccccc2)nc(-c2ccccc2)n1 | 8.95 µM |
| Cn1cccc1C(=O)Nc1nc(-c2ccccn2)cs1 | 12.4 µM |
| CCCCNc1c(-c2ccc(OC)c(SC3CCCCC3)c2)nc2cc(C)ccn12 | 3.89 µM |
| COc1ccccc1C(NC(C)=O)c1cc(Cl)c2cccnc2c1O (configuration not stated) | 2.91 µM |
| C[C@]12CC[C@@H]3c4ccc(OC(=O)c5ccccc5)cc4CC[C@H]3[C@@H]1CC[C@@H]2O | 1.92 µM |
| Nc1c(Cl)cc(C2=NCCn3c2c2ccc([N+](=O)[O-])cc2[n+]3[O-])cc1Cl | 2.44 µM |
| COc1ccc(-c2n[nH]c(C)c2-c2ccc(Cl)cc2)c(O)c1 | 6.52 µM |
| Clc1ccc(N2COC3c4cccc5cccc(c45)C32)cc1 (configuration not stated) | 7.55 µM |
| Cc1cc(-c2c(C)[nH]n(-c3ccc(Cl)cc3)c2=O)n[nH]1 | 1.78 µM |
| Cc1nnc(SCC2=C(C(=O)O)N3C(=O)C(NC(=O)c4cc(F)c(F)cc4Cl)C3SC2)s1 (configuration not stated) | 0.535 µM |
| C=CCSc1nc2ccccc2c(=O)n1Cc1ccccc1 | 15.3 µM |
| CCCCCCCn1c(=O)c(C(=O)Nc2cnccn2)c(O)c2ccccc21 | 2.16 µM |
| O=C(Nc1nnc(C2=COCCO2)o1)c1ccc(Cc2ccccc2)cc1 | 1.47 µM |
| CCN1C(=O)/C(=C\c2ccc(-c3ccc([N+](=O)[O-])cc3OC)o2)SC1=Nc1cccc(C(=O)O)c1 | 3.57 µM |
| COc1ccc(C(=O)NC(=S)NNC(=O)c2ccc(C)cc2)cc1 | 0.137 µM |

| SMILES | EC50 |
| --- | --- |
| Cc1nn2c(COc3ccc(NC(=O)c4ccccc4Cl)cc3)nnc2c2ccccc12 | 1.63 µM |
| CC(C)Nc1cc(C(C)(C)C)nc2c(-c3ccccc3)cnn12 | 4.42 µM |
| N=C1SCC(=O)N1c1ncc(Cc2ccc(F)cc2)s1 | 1 µM |
| COc1ccc(-n2c(SCC(=O)Nc3ccccc3)nc(O)cc2=O)cc1 | 15.2 µM |
| CNC1=C(N(C(C)=O)c2ccc(Br)cc2)C(=O)c2ccccc2C1=O | 6.36 µM |
| c1ccc(-c2oc3ncnc(NCCCn4ccnc4)c3c2-c2ccccc2)cc1 | 8.92 µM |
| CCCc1cc2c(-c3ccccc3)cc(=O)oc2cc1OCc1ccc(C(=O)O)o1 | 8.9 µM |
| CCOc1ccc(/C=N/Nc2cc(N3CCOCC3)nc(C)n2)c(O)c1 | 8.48 µM |
| c1ccc(-c2nc(C3CCCCC3)c3ccccc3n2)cc1 | 3.87 µM |
| CCCOc1cccc(-c2cc(C(=O)N/N=C/c3ccccn3)c3ccccc3n2)c1 | 1.87 µM |
| COC(=O)c1ccc(CSc2cc(C)c3cc(C)cc(C)c3n2)o1 | 4.86 µM |
| Cc1ccc(Cn2c(C(CO)Nc3nc(-c4ccc(F)cc4)cs3)nc3ccccc32)cc1 (configuration not stated) | 3.35 µM |
| O=C(NC(=S)NNC(=O)c1ccc(Cl)cc1Cl)c1cccnc1 | 3.07 µM |
| CCCCC(=O)NC(c1ccco1)c1cc(Cl)c2cccnc2c1O (configuration not stated) | 2.03 µM |
| CCCCC(=O)O[C@H]1CC[C@H]2[C@@H]3CCc4cc(O)ccc4[C@H]3CC[C@]12C | 3.83 µM |
| Cn1nc(-c2ccccc2)c(CSc2cccc(Cl)c2)c1Cl | 1.08 µM |
| O=c1cc(-c2ccc([N+](=O)[O-])cc2)nc2cc(-c3ccc(F)cc3)[nH]n12 | 3.48 µM |
| CCC(C)Sc1cc(C(F)(F)F)c(C(=O)Nc2ccc(Cl)cc2)cn1 (configuration not stated) | 7.31 µM |
| COc1ccc(Cn2c(C3CCCCC3)nc3c(c(=O)c4ccccc4n3C)c2=O)cc1 | 3.2 µM |
| CCCCCCCCCc1nc2sc3c(c2c(=O)n1NC(=O)c1ccc([N+](=O)[O-])cc1)CC(C)(C)OC3 | 3.5 µM |
| CCN(CC)C(=O)c1cc(-c2ccc(Br)cc2)on1 | > 15 µM (inactive) |
| O=C(NNC(=S)NC(=O)c1ccccc1)c1ccc([N+](=O)[O-])cc1 | 3.23 µM |

| SMILES | EC50 |
| --- | --- |
| O=[N+]([O-])c1cc(C(F)(F)F)cc([N+](=O)[O-])c1NCCNC(=S)Nc1ccc(Cl)c(Cl)c1 | 1.12 µM |
| CC(C)c1ccc(-c2nc(N3CCCC3)nc3n[nH]c(N)c23)cc1 | 8.74 µM |
| COC(=O)c1ccc(NC(=O)c2nc(S(=O)(=O)Cc3cccc(C)c3)ncc2Cl)cc1 | 1.04 µM |
| CC/C(=C\C=C\[C@@H]1C=C[C@@H]2CCC[C@H]2[C@@H]1C(=O)c1ccc[nH]1)[C@@H]1O[C@@H]([C@@H](C)C(=O)O)CC[C@@H]1C | 0.127 µM |
| CCSc1nsc(NC(=O)Nc2cccc(F)c2)n1 | 7.63 µM |
| COc1cc(NS(=O)(=O)c2ccc(C)cc2)c2ncccc2c1 | 0.777 µM |
| CCN(CC)S(=O)(=O)c1cc(OC)ccc1N=Nc1ccc(O)c2ncccc12 | 1.92 µM |
| Cc1ccc(Nc2nc(N/N=C\c3ccc4c(c3)OCO4)nc(N3CCOCC3)n2)cc1 | 4.5 µM |
| C[N+](C)(C)c1ccc(/C=N/Nc2nc(Cl)c(C#N)c(Cl)c2Cl)cc1 | > 15 µM (inactive) |
| Cc1cccc(NC2=NC(C)(C)N=C(N)N2)c1 | 0.109 µM |
| Cc1cc(C)nc(-n2nc(C)c(Sc3ccc(F)cc3)c2N)n1 | > 15 µM (inactive) |
| Nc1c(C(=O)OCc2ccccc2)c2nc3ccccc3nc2n1Cc1cccs1 | 5.04 µM |
| CCc1c(C)nc2cc(-c3ccc(OC)c(OC)c3)nn2c1N1CCC(C)CC1 | 7.56 µM |
| CC(C)Sc1cc(N2CCCC2)nc(-c2ccccc2)n1 | 11.2 µM |
| N=c1c(-c2nc3ccccc3[nH]2)cc(C(=O)c2cccs2)nn1-c1ccccc1 | 1.89 µM |
| COc1ccc(NC(=O)c2cc(-c3cc(C)cc(C)c3O)n[nH]2)cc1Cl | 2.25 µM |
| O=C(NNC1=C(C(=O)C(F)(F)F)CCC1)c1ccccc1O | 0.724 µM |
| O=C(NC(=S)NNC(=O)[C@H]1C[C@@H]1c1ccccc1)c1cccc(F)c1 | 0.756 µM |
| COc1cccc(C(=O)N/N=C(/c2ccccc2)c2ccccn2)c1 | 8.86 µM |
| S=C(NCc1cccs1)Nc1cc(Cl)cc(Cl)c1 | 7.18 µM |
| CC/C(=C/c1ccccc1)c1cccc2[nH]c3c(OC)cccc3c12 | 2.49 µM |
| COc1cc(/C=C2/SC(=S)N(Cc3ccccc3)C2=O)ccc1O | 5.8 µM |

| SMILES | EC50 |
| --- | --- |
| O=C(CSC(=S)N1CCCCC1)Nc1nc(-c2ccccc2)c(-c2ccccc2)o1 | 1.76 µM |
| O=C(CNC(=O)c1ccc(F)cc1)N/N=C/c1cc(Br)ccc1OCc1ccccc1 | 12.2 µM |
| Cc1cccc(/C=C/C(=O)c2ccc([N+](=O)[O-])o2)c1 | 4.81 µM |
| CCCCNC(=O)c1onc(CSc2ccc(C(C)C)cc2)c1C(=O)O | 4.13 µM |
| Cc1nnc(Sc2cc(NCCCO)c([N+](=O)[O-])c3nonc23)s1 | 7.78 µM |
| Cc1cccc2sc(NNC(=O)c3ccc(S(=O)(=O)N4CCc5ccccc5C4)cc3)nc12 | 0.368 µM |
| COc1ccc(C(=O)Nc2cccc(-c3ccc(N4CCOCC4)nn3)c2)cc1 | > 15 µM (inactive) |
| O=C(/C=C1\NC2(CCCC2)Cc2ccccc21)C(=O)N/N=C/c1ccccc1O | 2.27 µM |
| CC(C)(C)c1ccc(C(=O)N/N=C/c2ccccn2)cc1 | 3.3 µM |
| Cc1ccc(-n2[nH]c(C)c(/C=N/NC(=O)c3cccc([N+](=O)[O-])c3)c2=O)cc1C | 1.15 µM |
| COc1ccc(C(=O)c2coc3c2C(=O)C(=O)c2ccccc2-3)cc1 | 5.65 µM |
| O=C(COC(=O)c1ccccc1)Nc1ccccc1Sc1ccccc1 | 8.89 µM |
| CCCCn1c(=O)c(C(=O)NCc2ccccc2)c(O)c2ccccc21 | 6.85 µM |
| Cc1ccc(C2CC(c3cccs3)=NN2C(=O)c2ccc(Br)o2)cc1 (configuration not stated) | 1.94 µM |
| CCOc1cc(CNc2ccc3c(c2)CCC3)ccc1OC | > 15 µM (inactive) |
| CCCc1nc2ccccc2c(C(=O)OCC(=O)Nc2ccc(S(=O)(=O)N3CCOCC3)cc2)c1CC | 7.15 µM |
| Cc1conc1NC(c1cccs1)c1ccc2cccnc2c1O (configuration not stated) | 1.23 µM |
| COc1cccc(-c2nc(N3CC(C)CC(C)C3)c3ccccc3n2)c1O (configuration not stated) | 3.05 µM |
| O=[N+]([O-])c1ccc(O)c(-c2cc(C(F)(F)F)nc(-c3ccccc3)n2)c1 | 0.205 µM |
| CC[C@@H](C)[C@H](NC(=O)OC(C)(C)C)c1nnc(S(=O)(=O)Cc2cc(C)ccc2C)o1 | 9.66 µM |
| O=C(N/N=C/c1ccc([N+](=O)[O-])o1)c1ccc(NS(=O)(=O)c2cccs2)cc1 | 3.55 µM |
| CCCOC(=O)c1ccc(Oc2cn[nH]c2-c2ccc(O)cc2O)cc1 | 3.34 µM |

| SMILES | EC50 |
| --- | --- |
| CCOc1ccccc1NC(=O)c1nc(S(=O)(=O)Cc2cccc(C)c2)ncc1Cl | 11.1 µM |
| CC1(C)S[C@@H]2[C@H](NC(=O)C(NC(=O)N3CCNC3=O)c3ccccc3)C(=O)N2[C@H]1C(=O)O (some centres not stated) | < 0.06 µM |
| CC(C)Cc1csc(NC(=O)c2ccc(Br)cc2)c1C(=O)O | 1.57 µM |
| Cc1ccc(C(O)(C(=O)NNc2ccc3ccccc3n2)c2ccc(C)cc2)cc1 | 2.04 µM and 2.98 µM |
| CC(C)(C)c1ccc(CN(Cc2ccco2)Cc2nnnn2C2CCCC2)cc1 | 4.69 µM |
| CNC(=S)N1CCN(c2c(F)cc3c(=O)c(C(=O)O)cn(C4CC4)c3c2OC)CC1C (configuration not stated) | 0.16 µM |
| CCOc1ccc(-c2nc3n(c(=O)c2C#N)CCCS3)cc1 | 7.33 µM |
| Cc1cccc(Nc2nc(-c3ccc(F)c(C)c3)cs2)n1 | 8.5 µM |
| O=[N+]([O-])/C=C/c1c(OCc2ccccc2)ccc2ccccc12 | 1.63 µM |
| CCOC(=O)c1sc(NC(=O)Nc2ccc(Cl)cc2)cc1C | 10.1 µM |
| CC(Oc1ccc(Cl)cc1Cl)C(=O)Nc1ccc2oc(-c3ccncc3)nc2c1 (configuration not stated) | 6.24 µM |
| O=C(Nc1ccc(Cl)c(Cl)c1)Nc1nccs1 | 8.79 µM |
| Cc1nn(-c2ccccc2)c(C)c1/C=N/Nc1nc2ccccc2[nH]1 | 9.71 µM |
| CCc1c(C2(O)CCCCC2)[nH]c2c(C(=O)OC)cc(Cl)cc12 | 4.12 µM |
| Cc1ccc(NC(=S)N=Nc2c(O)[nH]c3ccccc23)cc1 | 0.631 µM |
| CC(C)C(=O)Nc1ccc(C(=O)NNC(=S)NC(=O)c2cccs2)cc1 | 6.57 µM |
| O=C1Nc2cc(C(=O)N3CCN(c4ccccn4)CC3)ccc2S/C1=C\c1ccccc1 | 3.35 µM |
| CC(C)=CCC12Oc3cc(O)ccc3C1(O)Oc1cc(O)c([C@H]3C=C(C)CC(c4ccc(O)cc4O)[C@H]3C(=O)c3ccc(O)cc3O)c(O)c1C2=O (some centres not stated) | 1.21 µM |
| Oc1c(Cl)cc(Cl)cc1C=Nc1cc(C(F)(F)F)ccc1N1CCc2ccccc2C1 | 3 µM |
